Measured values from patent US12162811B2, “F-18 labeled chiral pure derivative of hydroxyfuran, preparation method and use thereof” (The First Affiliated Hospital of Sun Yat-sen University, priority 2022, dated 2024).
“Also recorded” adds a separate entry of the source. Values belong to the compound of their own block, whether it stands above or below them.

Columns and labels:
[1] = tested on: HCT8 xenograft tumor; assay: micro-PET/CT imaging of tumor-bearing nude mice after intratumoral or tail vein injection; type: in vivo, nude mouse; settings: for SUVmax in the tumor: 5 min after injection; for SUVmax of the tumors: 1 h
Method: A nude mouse model with HCT8 xenograft tumor was established, and dynamic imaging was performed after intratumoral injection upon anesthesia of the tumor-bearing mice: 0.1 mL (about 100 μCi) of the solution prepared automatically with saline dilution with or without supersaturated sodium ascorbate was taken from a 1 mL syringe needle, and the solution was injected intratumorally into the nude mice model with an automatic syringe pump at 0.1 mL/min, and a dynamic 1-h microPET/CT imaging was performed. Delayed imaging was performed: statically imaged 2 h after injection.
Static micro-PET/CT imaging was performed 1 hour after tail vein injection in the anesthetized tumor-bearing mice.

[2] = tested on: tumor lesions; assay: whole-body dynamic PET/CT imaging of tumor patients; type: in vivo, human
Method: Six patients with different tumors fasted and urinated for at least 6 hours prior to receiving PET/CT scanning, approximately 5, 13, 30, 45 and 60 minutes after injection of (4R, 5R)[^18F]FAA (mean 448±113 MBq), the five consecutive whole-body dynamic PET/CT scanning was conducted for each participant using a uMI 780 scanner (United Imaging Healthcare) or Discovery MI scanner (GE Healthcore). The CT acquisition parameters of the uMI 780 scanner were 120 kV, smart 100-200 mAs, detector coverage of 40 mm, spacing of 0.9875, slice thickness of 1.0 mm, and rotation time of 0.5 s. The PET emission scan time was 1.5 min per bed with 6 beds covering the scanning area. Finally, the PET images were reconstructed by the regularized ordered subset expectation maximization algorithm (R-OSEM, UNITED IMAGING) with attenuation normalization using ACCT images. The CT acquisition parameters of the Discovery MI scanner were 120 kV, smart 120-180 mA, detector coverage of 40 mm, slice thickness of 0.625 mm, pitch to speed of 0.984:1, 39.37 and rotation time of 0.6 s. The PET emission scanning time was 1 min per bed with 6 to 8 beds covering the scanning area. Finally, the PET images were reconstructed by a Bayesian penalized likelihood (BPL) reconstruction algorithm (Q.clear, GE Healthcare) and attenuation nominalization was performed using ACCT images. Urine samples were collected after the last PET/CT scan and total radioactivity of the urine was assessed.

[3] = biodistribution in human body (ROI time-activity profiles of source organs); type: in vivo
Excerpt: For the 6 sets of images obtained by Example 5, the ROI was depicted in the whole body images at the first time point and replicated to subsequent time point scans so as to determine the cumulative radioactivity in each source organ. The genital volume was manually adjusted if necessary. Major source organs include brain, thyroid, lung, heart wall, liver, gallbladder, stomach, adrenals, kidneys, pancreas, spleen, uterus (female only), testes (male only), and bone marrow. The biodistribution analysis included muscle and the absorbed dose analysis included bladder. Spinal ROIs were plotted as an alternative to the red bone marrow. Time-activity profiles were derived from each ROI, and cumulative radioactivity for each source organ was expressed as a percentage of the injected dose (% ID).

[4] = radiometrics: residence times and radiation absorbed dose (MIRD); type: in vivo, human
Method: For the six sets of data obtained through Example 6, the residence times were calculated as the area under each time-activity curve by curve fitting with either a mono-or bi-exponential function model. The residence times of the bladder were generated by the integration of the time-activity curve from zero time to the last emission scan time plus the integration of the function from the last scan time to infinity (physical decay only). These residence times are then used for radiation absorbed dose calculations. The radiation absorbed dose was calculated for each subject using the Medical Internal Radiation Dose (MIRD) algorithm. The absorbed dose in the target area specified by MIRD was calculated according to the standardized Cristy Eckerman 70 kg adult male model, and the effective dose was assessed according to the tissue weighting factors in the publication of International Commission on Radiological Protection.

[5] = comparison PET tracer; cited from earlier work
[6] = intratumoral injection, with supersaturated sodium ascorbate
[7] = intratumoral injection, without supersaturated sodium ascorbate

- effect of added supersaturated sodium ascorbate on metabolism of the tracer in the liver ([1]; intratumoral injection, dynamic imaging): significantly inhibited
- uptake in liver, adrenal glands, choroid plexus, pituitary gland and thyroid (exception of the kidney) ([3]; 1 h after injection): high uptake
- uptake in heart, muscle and brain ([3]; during the imaging phase): low
- uptake in liver, adrenal glands, kidneys, choroid plexus, pituitary gland and thyroid ([3]; earliest imaging time point, most subjects): high uptake
- uptake in spleen, intestine, salivary glands and bone marrow ([3]; slow clearance over time): moderate uptake
- mean effective dose (ED) ([4]; ICRP tissue weighting factors): 1.68±0.36E-02 mSv/MBq
- absorbed dose ([4]; adrenal gland): 1.89±0.61E-02 mGy/MBq
- residence time ([4]; bladder wall): 1.16±0.54E-03 hours
- absorbed dose ([4]; brain): 4.88±1.21E-03 mGy/MBq
- absorbed dose ([4]; kidney): 1.87±0.38E-02 mGy/MBq
- residence time ([4]; kidney): 1.77±0.53 E-03 hours
- absorbed dose ([4]; liver): 3.42±0.75E-02 mGy/MBq
- residence time ([4]; liver): 22.5±4.94 E-02 hours
- residence time ([4]; lung): 3.18±0.49 E-02 hours
- absorbed dose ([4]; spleen): 2.95±1.70E-02 mGy/MBq
- residence time ([4]; spleen): 2.19±1.59 E-02 hours
- residence time ([4]; thymus): 2.74±1.37E-05 h
- mean systemic absorbed dose ([4]; whole body): 6.54±1.58E-03 mSv/MBq
Compound: O=C1O[C@H]([C@@H](O)C[18F])C(O)=C1O [(4R, 5R)[^18F]FAA]
- SUVmax in the tumor [1, 6]: 165 % ID/g
- SUVmax of the tumors [1, 6]: 45 % ID/g
- SUVmax in the tumor [1, 7]: 88 % ID/g
- SUVmax of the tumors [1, 7]: 34 % ID/g
- SUVmax of tumors, delayed imaging ([1]; intratumoral injection, without supersaturated sodium ascorbate, 2 h after injection): 35 % ID/g
- SUVmax of the tumors ([1]; tail vein injection): 6.3 % ID/g
- uptake in tumors ([1]; tumor-bearing mice): certain tumor uptake; also recorded: high uptake in tumors
- metastases detected ([2]; 6 patients): 168
- primary lesions detected ([2]; 6 patients): 2
- mean SUVmax in all tumor lesions ([2]; 6 patients, all tumor lesions): 6.89±3.82
- median SUVmax in all tumor lesions ([2]; 6 patients, all tumor lesions): 6.07
- range of SUVmax in all tumor lesions ([2]; 6 patients, all tumor lesions): 1.62-22.85
- tumor radioactivity uptake ([2]; kidney cancer and intestinal cancer patients): average tumor radioactivity uptake
- uptake in primary and metastatic tumor foci ([2]; thyroid cancer and lung cancer): very high uptake
- safety in humans ([2]; tumor patients): safe for use in humans
- uptake in tumors ([2]; tumor patients): high uptake in tumors
- route of excretion ([3]; human): excreted mainly through the kidneys to the bladder

Compound: [^18F]FDG
- systemic absorbed effective dose [5]: 1.90±0.36 E-02 mSv/MBq
